In patent publication US10995260B2, “Methods for determining an optimal surfactant structure for oil recovery” (University of Wyoming, priority 2017, dated 2021):

Test: Dynamic interfacial tension of surfactant solution/crude oil (rising/captive bubble tensiometry)
Assay type: physicochemical
Conditions: time for IFT to reach half of its value between γo and γm; 0.1% wt surfactant, municipal water/crude oil, ambient conditions
Protocol: Interfacial tension tests were carried out in accordance with the invention. Dynamic IFT and contact angles were measured using rising/captive bubble tensiometry enhanced by image acquisition with a high-resolution Charged Coupled Device (CCD) digital camera and apochromatically-corrected lens. The apparatus includes a Hastelloy measurement cell, a Hastelloy dual-cylinder pulse-free Quizix pump (to provide constant flow rate and pressure), a temperature control module, a data acquisition computer, an oven, and an in-line density meter (Anton Paar DMA HPM) to measure the density of fluids at actual experimental conditions. The system tolerates reservoir conditions with pressures and temperatures up to 10,000 psi and 150° C., respectively (V. Mirchi, S. Saraji, L. Goual, M. Piri, Dynamic interfacial tension and wettability of shale in the presence of surfactants at reservoir conditions, Fuel, vol. 148, pp. 127-138, 2015).
For IFT measurements, after establishing ambient (e.g., 14.7 psi and 20° C.) or reservoir conditions (e.g., 6840 psi and 120° C.) in a cell saturated with brine, a bubble of crude oil was created inside the measurement cell through a needle (0.3-1.6 mm outside diameter). Images of oil bubbles were captured at 5-second intervals to measure dynamic interfacial tension. IFT values were obtained by fitting the drop profile to the Young-Laplace equation using Axisymetric Drop Shape Analysis (ADSA) software.
A series of dynamic IFT measurements with municipal water and crude oil were performed at ambient conditions to examine the surface activity of selected surfactants. FIGS. 5A-5F present dynamic IFT results of a homologous series of nonionic surfactant solutions with 0.1% wt concentration, which is above the critical micelle concentration (CMC) of all the surfactants studied. The size of the hydrophobic and hydrophilic parts of the surfactants were altered independently and their impact on oil/brine interfacial tension was investigated.
In addition, the dynamic IFT of certain surfactants was measured at reservoir conditions. In particular, the impact of elevated temperatures and pressures on the performance of these surfactants was evaluated. IFT values of crude oil and surfactant solutions were measured at 6840 psi and 120° C.
As shown by Equation 1, three typical regions of dynamic IFT reduction exist: (I) induction region, (II) rapid fall region, and (III) mesoequilibrium region (X. Y. Hua, M. J. Rosen, Dynamic surface tension of aqueous surfactant solutions: I. Basic parameters, Journal of Colloid and Interface Science, vol. 124, no. 2, pp. 652-659, 1988). log(γ0−γt)−log(γt−γm)=n log t−n log t* (1)
In Equation 1, γt is the IFT of surfactant solution at time t, γm is the mesoequilibrium interfacial tension (when γt is almost stabilized), γo is the IFT in the absence of surfactant, and t* is the required time for IFT to reach half of its value between γo and γm. The value of n is a constant number related to the structure of surfactants and correlates to the difference between surfactants' adsorption and desorption. Increasing nonionic surfactants' polyoxyethylene chain length reduces the value of n (T. Gao, M. J. Rosen, Dynamic surface tension of aqueous surfactant solutions: 7. physical significance of dynamic parameters and the induction period, Journal of Colloid and Interface Science, vol. 172, no. 1, pp. 242-248, 1995).

With “CH3(CH2)11-14(OC2H4)3OH [CH2 11-14, EO 3]” the “t*” value was 23 min.

For “CH3(CH2)11-13(OC2H4)8.2OH [CH2 11-14, EO 8.2]”, the “t*” value was 7.83 min.

In the case of “CH3(CH2)8-10(OC2H4)6-6.5OH [CH2 8-10, EO 6]”, the “t*” value is reported as 12.3 min.

For “CH3(CH2)8-10(OC2H4)2.5OH [CH2 8-10, EO 2.5]”, the “t*” value was 16.5 min.

With “CH3(CH2)11-14(OC2H4)7.25OH [CH2 11-14, EO 7.25]” the “t*” value was 9.3 min.

With “CH3(CH2)8-10(OC2H4)8.3OH [CH2 8-10, EO 8]” the “t*” value was 11.6 min.
